According to patent US20080051393A1, “Novel cannabinoids and methods of use” (Eastern Virginia Medical School, priority 2006, published 2008):

Experiments:
ICR mice [1] = assay: Tetrad model: antinociception in the tail-flick procedure (TF); assay type: in vivo; settings: Mus musculus, iv, 20 min; i.v., tail-flick 20 min after injection; read-out: T.F. ED50
Excerpt: (§1) ICR Mice and Materials. Male ICR mice (Harlan Laboratories, Indianapolis, Ind.) weighing between 24 to 30 g were used in all experiments. Mice were maintained on a 14:10-hr light/dark cycle with food and water available ad lib. All test groups consisted of 6 to 12 mice. Analogs dissolved in a vehicle consisting of ethanol, emulphor and saline in a ratio of 1:1:18. All chemicals for receptor binding studies were purchased from Sigma (St. Louis, Mo.) except the following: Dulbeco's modified Eagle's medium (DMEM) from GIBCO BRL (Grand Island, N.Y.), Whatman GF/B glass fiber filters from Fischer Scientific (Pittsburg, Pa.), fetal calf serum (FCS) and fetal bovine serum (FBS) from HyClone Laboratories (Logan, Utah) and Budget-Solve scintillation fluid from RPI Corp. (Mount Prospect, Ill.).
(§2) Behavioral Evaluations. All animals were allowed to acclimate to the observation room overnight. Behavioral effects were assessed in the tetrad model to measure potency in decreasing spontaneous activity (SA), antinociception [tail-flick procedure, TF], rectal temperature (RT) and relative immobility (RI) catalepsy. The baselines for tail-flick latency (2-4 sec) and rectal temperature were determined prior to i.v. injections. Baseline rectal temperatures were measured using a telethermometer and a thermometer probe inserted to 25 mm (Yellow Springs Instrument Co., Yellow Springs, Ohio). The mice treated i.v. with an analog were placed in individual photocell activity chambers 5 min later. Spontaneous activity wasp monitored for 10 min in a Digiscan Animal Activity Monitor (Omnitech Electronice, Inc., Columbus, Ohio) as measured by the number of interruptions of 16 photocell beams per chamber. The total number of beam interruptions during the 10-min period was determined and presented as total counts. The mice were then assessed at 20 min following the i.v. injection for antinociception using the tail-flick reaction time to a heat stimulus. A 10-sec maximum latency was used in order to avoid tail injury. The results are presented as % MPE and are calculated as follows: % MPE=[(test latency-control latency)/(10 sec−control latency)]×100.
(§3) Data analysis. Based on data obtained from numerous previous in vivo studies with cannabinoids, maximal cannabinoid effects in each in vivo pharmacological procedure were estimated as follows: 90% inhibition of spontaneous activity, 100% MPE in the tail flick procedure, and −6° C. change in rectal temperature. Means and standard error (S.E.) were calculated for % MPE, number of photocell disruptions, % ring immobility and Δ° C. Analysis of variance (ANOVA) was used to determine significant differences between control and treatment groups followed by Dunnett's t-test post-hoc analysis. Statistical analysis was performed using StatView, version 5.0 (SAS Institute, Cary, N.C.). Significance was defined as a “p”<0.05. ED50's were defined as the dose at which half maximal effect occurred. For drugs that produced one or more cannabinoid effect, ED50's were calculated separately using least-squares linear regression on the linear part of the dose-effect curve for each measure in the mouse tetrad, plotted against log10 transformation of the dose.

human CB2 receptor = biological target: T1, human CB2 receptor (Homo sapiens, UniProt P34972); assay: CB2 receptor binding, [3H]CP55,940 displacement; settings: CHO membranes, means ± SE, N = 3
T1 construct: expressed in transfected cells; host or cells: CHO
T1 sequence (P34972 whole entry): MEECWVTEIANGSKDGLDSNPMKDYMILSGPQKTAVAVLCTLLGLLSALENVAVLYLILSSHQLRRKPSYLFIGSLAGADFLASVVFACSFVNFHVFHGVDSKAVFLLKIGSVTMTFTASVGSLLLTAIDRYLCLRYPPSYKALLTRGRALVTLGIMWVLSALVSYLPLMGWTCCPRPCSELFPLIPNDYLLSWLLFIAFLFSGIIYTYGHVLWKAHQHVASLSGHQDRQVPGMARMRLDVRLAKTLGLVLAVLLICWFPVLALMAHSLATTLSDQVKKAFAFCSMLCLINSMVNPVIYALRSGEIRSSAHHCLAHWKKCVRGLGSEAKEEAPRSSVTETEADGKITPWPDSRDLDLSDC
Experimental: (§4) Membrane Preparations. HEK-293 cells stably expressing the human CB1 receptor were cultured in DMEM with 10% FBS and Chinese Hamster Ovary (CHO) cells stably expressing the human CB2 receptor were cultured in DMEM with 10% FCS. Cells were harvested by replacement of the media with cold phosphate-buffered saline containing 1 mM EDTA followed by centrifugation at 1000×g for 5 min at 4° C. The pellet was resuspended in 50 mM Tris-HCl containing 320 mM sucrose, 2 mM EDTA and 5 mM MgCl2 (pH 7.4) (centrifugation buffer), then centrifuged at 1000×g for 10 min at 4° C. and the resulting supernatant was saved. This process was repeated twice. The supernatant fractions were combined and centrifuged at 40,000×g for 30 min at 4° C. The resulting P2 pellet was resuspended in assay buffer (50 mM Tris-HCl (pH 7.4), 3 mM MgCl2, 0.2 mM EGTA, and 100 mM NaCl) and protein was measured. Membranes were stored at −80° C. until use.
(§5) Receptor Binding. Membrane homogenates (50 μg) were incubated with 0.5 nM [^3H]CP55,940 in the presence of varying concentrations (1 nM-10 μM) of test compounds in 0.5 ml of buffer containing BSA (5 mg/ml). Non-specific binding was measured in the presence of 1 μM CP55,940. The assay was incubated at 30° C. for 1 hr and terminated by addition of ice cold 50 mM Tris-HCl+BSA (1 mg/ml) (pH 7.4) followed by filtration under vacuum through Whatman GF/B glass fiber filters with 3 washes with cold Tris buffer. Bound radioactivity was determined by liquid scintillation spectrophotometry at 50% efficiency after extraction by shaking samples for 30-60 min with Budget-Solve scintillation fluid. Data are reported as the mean ±SEM of three experiments, each performed in triplicate. Ki values were calculated from displacement data using EBDA (Equilibrium Binding Data Analysis; BIOSOFT, Milltown, N.J.).

ICR mice [2] = assay: Tetrad model: inhibition of spontaneous activity (SA); assay type: in vivo; settings: Mus musculus, iv, spontaneous activity 5-15 min after injection; read-out: S.A. ED50
Excerpt: as §1, §2, §3

ICR mice [3] = assay: Tetrad model: relative immobility (RI), ring-immobility test; assay type: in vivo; settings: Mus musculus, iv, 40 min; i.v., ring immobility 40 min after injection; read-out: R.I. ED50
Excerpt: as §1
Rectal temperature was measured 30 min after the i.v. injection. The change in rectal temperature (Δ° C.) following analog administration was calculated for each animal. Relative immobility (catalepsy) was measured 40 min after the i.v. injection by the ring-immobility test. Mice were placed on a ring 5.5 cm in diameter attached to a stand at a height of 16 cm. The amount of time the mice spent motionless on the ring during the 5-minute procedure was measured, with the criteria of immobility being defined as the absence of all voluntary movements, including whisker movement, but excluding respiration. The percent immobility was calculated as: % immobility=[time immobile (sec)]/[length of session (sec)]×100. Mice that fell from the ring or actively jumped were allowed five attempts. After the fifth escape these mice were removed from the ring and not included in the calculations. Data were collected from 6-12 mice for each condition tested.
as §3

human CB1 receptor = biological target: T2, human CB1 receptor (Homo sapiens, UniProt P21554); assay: CB1 receptor binding, [3H]CP55,940 displacement; settings: HEK-293 membranes, means ± SE, N = 3
T2 construct: expressed in transfected cells; host or cells: HEK-293
T2 sequence (P21554 whole entry): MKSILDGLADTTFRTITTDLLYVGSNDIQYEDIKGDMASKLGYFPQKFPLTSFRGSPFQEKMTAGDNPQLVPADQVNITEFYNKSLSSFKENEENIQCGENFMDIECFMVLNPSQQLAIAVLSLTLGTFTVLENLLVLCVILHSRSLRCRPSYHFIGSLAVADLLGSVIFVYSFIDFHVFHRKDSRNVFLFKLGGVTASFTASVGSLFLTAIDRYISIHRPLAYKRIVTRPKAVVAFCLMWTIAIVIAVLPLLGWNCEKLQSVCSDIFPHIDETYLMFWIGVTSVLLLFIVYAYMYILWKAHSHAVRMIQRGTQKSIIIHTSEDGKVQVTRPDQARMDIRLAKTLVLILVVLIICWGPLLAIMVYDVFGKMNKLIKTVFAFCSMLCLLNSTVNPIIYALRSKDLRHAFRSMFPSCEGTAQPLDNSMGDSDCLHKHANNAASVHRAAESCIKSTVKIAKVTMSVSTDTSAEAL
Experimental: as §4, §5

[4] = test system: retinal ganglionic cells (RGC); assay: Rat NMDA model: retinal flat mounts, RGC count; assay type: in vivo; settings: NMDA treatment only
Experimental: Rat NMDA Model. To mimic glaucomatous damage to the retina without a potentially confounding effect on IOP, retinal damage was induced by NMDA in a rat model. Following baseline measurements, e.g. IOP, ERG, slit lamp, fundus photography, heart rate and blood pressure, N-methyl D-aspartate (NMDA, 2 μl of 10 mM) was injected intravitreally to induce RGC damage. […] For positive identification, a hand scanner was used each time the rat was examined. This was necessary since the examiners will be masked as to treatment group. Treatment groups consisted of either NMDA only (control), O-1812 (0.1%) or O-2545 (0.1%), O-1812 (0.1%)+SR-141716 (2 mM), O-2545 (0.1%)+SR-141716 (2 mM), O-1812 (0.1%)+SR-144258 (2 mM) and O-2545 (0.1%)+SR-144258 (2 mM). All experiments were conducted in accordance with the policies of the Institutional Animal Care and Use Committee and the ARVO policy on use of animals in experiments. A minimum of two baseline ERG measurements was recorded 1 wk prior, 1 wk and 2 wk post injection. At the end of each experiment, rats were sacrificed and their eyes were preserved for histological assessment of effects on the retina and optic nerve.
Histology. For retinal flat mounts, retinas were dissected from formalin fixed whole eyes, mounted on superfrost glass slides, stained with hematoxylin and eosin and digitally photographed. For analysis, the retina was divided into four quadrants. A minimum of five 50 μm^2 sections per quadrant were used to count cell number. The cell sections were selected to be equidistant from the optic cup for all quadrants. For optic nerve experiments, the optic nerve was dissected at the margin of the optic disk and embedded in cryo media. Sections of 10 μm thickness were cut and mounted on superfrost glass slides and stained with hematoxylin and eosin. The slides were digitally photographed.

[5] = test system: IOP in a rat glaucoma model; assay: Combination therapy: IOP in a rat glaucoma model; assay type: in vivo, Sprague Dawley rats
Excerpt: (§6) Rat Glaucoma Model. Compared to acute studies, a chronic rat model of glaucoma was generated. The rats were made glaucomatous by ligating three vortex veins (Hosseini, A. et al. (2006) Chronic topical administration of WIN-55-212-2 maintinas a reduction in IOP in a rat glaucoma model without adverse effects. Exp. Eye Res. 82(5):753-9). More specifically, ocular hypertension was induced in Sprague-Dawley rats by ligating 3 of 4 episcleral veins of the right eye using 9.0 nylon sutures under anesthesia with 3 mg/Kg acepromazine and 20 mg/Kg ketamine. Within 6 wk, IOP increased by at least 5 mm Hg in the operated eye. This intervention produced at least a 30% increase in IOP in the operated eye and lasted for up to 60 weeks. During this time, a 30% loss of retinal function was documented by ERG. […] Thus, the model accurately mimics the progressive damage that occurs in patients with glaucoma.
(§7) Measurements of Intraocular Pressure. IOP elevation was measured under mild sedation using a calibrated Goldmann tonometer modified for rats. Three determinations were averaged for each eye. To account for diurnal variation, all IOP's were measured between 11 am and 1 pm during the daily trough period.
Combination Therapy. Since cannabinoids and timolol, which are both known to reduce IOP, have different mechanisms of action, there is potential for a synergistic effect. The combination of timolol and a synthetic cannabinoid (WIN55 212-2, O-1812, or O-2545) to reduce IOP in a chronic rat model of ocular hypertension was examined. Surgical ligation of three of the four episcleral veins in one eye of Sprague Dawley rats caused a long lasting (>44 week) increase in IOP. IOP was measured by Goldmann tonometry at baseline (−30), 0, 30, 60 and 120 min, as was heart rate and blood pressure. For combination therapy, after baseline IOP measurement, timolol 0.5% was applied topically followed 30 min later by WIN55 212-2 1.0%, O-1812 1.0%, or O-2545 1.0%. In another experiment, O-1812 1.0% and O-2545 1.0% were administered simultaneously. An analysis for ocular irritation was performed by slit lamp examination (SLE) at baseline and 150 min.

[6] = test system: IOP in a rat glaucoma model; assay: IOP after topical application in chronic rat glaucoma model; assay type: in vivo, Sprague-Dawley rats; settings: 1.0% topical
Excerpt: as §6, §7
Therapeutic Regimen. For IOP Measurements (Topical application) Baseline IOP, heart rate, blood pressure and normal ocular anatomy were documented prior to drug administration. The drugs WIN 55-212-2 (0.1%, 1.0%), O-1812 (0.01%, 0.1%, 1.0%), O-2545 (0.1%, 1.0%) were all dissolved in Tocrisolve™ (vehicle). IOP, heart rate, and blood pressure were measured prior to and after 30, 60 and 120 min after topical administration. Contralateral eyes served as vehicle treated controls.

Row | Structure (SMILES) | ED50 (ICR mice [1]) | Ki (human CB2 receptor) | ED50 (ICR mice [2]) | ED50 (ICR mice [3]) | Ki (human CB1 receptor) | Reduction of RGC cell density [4] | IOP at 120 min (% Baseline) ([5]; 0.5% topical alone, 120 min) | Time for which IOP was significantly decreased ([5]; timolol alone, prior experiments in this model) | Time for which significant IOP reduction was maintained [6] | Effect on IOP at 30 min ([6]; 30 min) | IOP after 60 min (% of Baseline) ([6]; 60 min)
1 | C[C@H](CO)NC(=O)CCC/C=C\C/C=C\C/C=C\C/C=C\C(C)(C)CCCCn1cccn1 [Compound O-2954] | 0.19 mg/kg | 301 ± 35.6 nM | 0.14 mg/kg | 0.57 mg/kg | 127 ± 2.84 nM |  |  |  |  |  | 
2 | C[C@H](CO)NC(=O)CCC/C=C\C/C=C\C/C=C\C/C=C\C(C)(C)CCCCn1cncn1 [Compound O-2955] | 1.94 mg/kg | 215 ± 40.5 nM | 2.03 mg/kg | 2.21 mg/kg | 298 ± 33.9 nM |  |  |  |  |  | 
3 | C[C@H](CO)NC(=O)CCC/C=C\C/C=C\C/C=C\C/C=C\C(C)(C)CCCCN1CCOCC1 [Compound O-4316] | 0.04 mg/kg | 22.4 ± 0.43 nM | 0.11 mg/kg | 0.03 mg/kg | 3.88 ± 0.22 nM |  |  |  |  |  | 
4 | C[C@H](CO)NC(=O)CCC/C=C\C/C=C\C/C=C\C/C=C\C(C)(C)CCCCn1ccnc1 [Compound O-4368] | 0.29 mg/kg | 153 ± 5 nM | 0.68 mg/kg | 0.25 mg/kg | 90.5 ± 5 nM |  |  |  |  |  | 
5 | C[C@H](CO)NC(=O)CCC/C=C\C/C=C\C/C=C\C/C=C\C(C)(C)CCCCN1CCCCC1 [Compound O-4386] | 0.55 mg/kg | 226 ± 24 nM | 0.79 mg/kg | 0.7 mg/kg | 92.8 ± 2.2 nM |  |  |  |  |  | 
6 | C[C@H](CO)NC(=O)CCC/C=C\C/C=C\C/C=C\C/C=C\C(C)(C)CCCCN1CCCC1 [Compound O-4388] | 0.38 mg/kg | 404 ± 39 nM | 0.42 mg/kg | 0.84 mg/kg | 99.4 ± 5.9 nM |  |  |  |  |  | 
7 | CN[C@H](CC(=O)O)C(=O)O [NMDA, N-methyl D-aspartate, reference compound] |  |  |  |  |  | 49% |  |  |  |  | 
8 | CC(C)(C)NC[C@H](O)COc1nsnc1N1CCOCC1 [Timolol, timolol] |  |  |  |  |  |  | 91.5 ± 10.2 % Baseline | 30 min |  |  | 
9 | Cc1c(C(=O)c2cccc3ccccc23)c2cccc3c2n1[C@@H](CN1CCOCC1)CO3 [WIN 55-212-3, reference compound] |  |  |  |  |  |  |  |  | up to 120 min | significantly lowered | 86.5 ± 2.5 % of Baseline
